Results from patent US7208517B1, “Endothelin antagonists” (Abbott Labortories, priority 1994, dated 2007).

Molecular target: T1, ETA Receptor (Rattus norvegicus, UniProt P26684)
T1 construct: endogenous in cells; host or cells: MMQ rat pituitary cells (membranes)
T1 sequence (P26684 21-426): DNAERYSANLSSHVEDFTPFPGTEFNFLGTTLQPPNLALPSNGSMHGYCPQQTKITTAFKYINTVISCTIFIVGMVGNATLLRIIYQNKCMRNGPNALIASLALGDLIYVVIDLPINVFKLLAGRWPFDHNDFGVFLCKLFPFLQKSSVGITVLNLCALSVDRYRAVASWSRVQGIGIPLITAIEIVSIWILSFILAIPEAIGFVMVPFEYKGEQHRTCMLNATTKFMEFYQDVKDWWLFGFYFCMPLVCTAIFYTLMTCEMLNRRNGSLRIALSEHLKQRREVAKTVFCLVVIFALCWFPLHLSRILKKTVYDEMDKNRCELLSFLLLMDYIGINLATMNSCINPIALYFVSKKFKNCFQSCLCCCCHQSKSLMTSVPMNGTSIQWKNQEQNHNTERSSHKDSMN
Assay: [125I]ET-1 binding to membranes from MMQ cells (ETA receptor binding assay, Table 4)
Conditions: test compound at 1 μM, 0.1 nM [125I]ET-1, MMQ cell membranes, 4 hours at 25° C.; for inhibition at 1 µM: read-out: % Inhibition of ETA at 1 μM
Description: Preparation of Membranes from MMQ Cells:
MMQ [MacLeod/MacQueen/Login cell line (prolactin secreting rat pituitary cells)] cells from 150 mL culture flasks were collected by centrifugation (1000×g for 10 min) and then homogenized in 25 mL of 10 mM Hepes (pH 7.4) containing 0.25 M sucrose and protease inhibitors [3 mM EDTA, 0.1 mM PMSF, and 5 μg/mL Pepstatin A] by a micro ultrasonic cell disrupter (Kontes). The mixture was centrifuged at 1000×g for 10 min. The supernatant was collected and centrifuged at 60,000×g for 60 min. The precipitate was resuspended in 20 mM Tris, pH 7.4 containing the above protease inhibitors and centrifuged again. The final pellet was resuspended in 20 mM Tris, pH 7.4 containing protease inhibitors and stored at −80° C. until used. Protein content was determined by the Bio-Rad dye-binding protein assay.
Binding assays were performed in 96-well microtiter plates pretreated with 0.1% BSA. […] After incubation, unbound ligands were separated from bound ligands by a vacuum filtration method using glass-fiber filter strips in PHD cell harvesters (Cambridge Technology, Inc., MA), followed by washing the filter strips with saline (1 mL) for three times. Nonspecific binding was determined in the presence of 1 μM ET-1.

Row | Compound | % Inhibition of ETA at 1 μM [%] | inhibition at 1 µM [%]
1 | CCN(CC)C(=O)CN1CC(c2ccc3c(c2)OCO3)C(C(=O)O)C1c1ccc(OC)cc1 (stereo not drawn) [Example 44, trans,trans-2-(4-Methoxyphenyl)-4-(1,3-benzodioxol-5-yl)-1-(N,N-diethylaminocarbonylmethyl)-pyrrolidine-3-carboxylic acid] | 91.3 | 
2 | COc1ccc(C2C(C(=O)O)C(c3ccc4c(c3)OCO4)CN2CC(=O)N(C)c2ccccc2)cc1 (stereo not drawn) [Example 45, trans,trans-2-(4-Methoxyphenyl)-4-(1,3-benzodioxol-5-yl)-1-(N-methyl-N-phenylaminocarbonylmethyl)-pyrrolidine-3-carboxylic acid] | 85.4 | 
3 | CCCN(C)C(=O)CN1CC(c2ccc3c(c2)CCO3)C(C(=O)O)C1c1ccc(OC)cc1 (stereo not drawn) [Example 52, trans,trans-2-(4-Methoxyphenyl)-4-(2,3-dihydrobenzofuran-5-yl)-1-(N-methyl-N-propyl)aminocarbonylmethyl)-pyrrolidine-3-carboxylic acid] | 84.0 | 
4 | CCCN(C)C(=O)CN1CC(c2ccc(OC)c(OC)c2)C(C(=O)O)C1c1ccc(OC)cc1 (stereo not drawn) [Example 54, trans,trans-2-(4-Methoxyphenyl)-4-(3,4-dimethoxyphenyl)-1-(N-methyl-N-propyl)aminocarbonylmethyl)-pyrrolidine-3-carboxylic acid] | 64.6 | 
5 | CCCN(C)C(=O)CN1CC(c2cccc(OC)c2)C(C(=O)O)C1c1ccc(OC)cc1 (stereo not drawn) [Example 55, trans,trans-2-(4-Methoxyphenyl)-4-(3-methoxyphenyl)-1-(N-methyl-N-propyl)aminocarbonylmethyl)-pyrrolidine-3-carboxylic acid] | 50.5 | 
6 | CCCN(C)C(=O)CN1CC(c2ccc3ccccc3c2)C(C(=O)O)C1c1ccc(OC)cc1 (stereo not drawn) [Example 56, trans,trans-2-(4-Methoxyphenyl)-4-(2-naphthyl)-1-(N-methyl-N-propyl)aminocarbonylmethyl)-pyrrolidine-3-carboxylic acid] | 34.3 | 
7 | CC[S+]([O-])CCN1CC(c2ccc3c(c2)OCO3)C(C(=O)O)C1c1ccc(OC)cc1 (stereo not drawn) [Example 57, trans,trans-2-(4-Methoxyphenyl)-4-(1,3-benzodioxol-5-yl)-1-(2-(ethylsulfinyl)ethyl)-pyrrolidine-3-carboxylic acid] | 93.2 | 
8 | COc1ccc(C2C(C(=O)O)C(c3ccc4c(c3)OCO4)CN2CCN(C)C(=O)C(C)C)cc1 (stereo not drawn) [Example 61C, trans,trans-2-(4-Methoxyphenyl)-4-(1,3-benzodioxol-5-yl)-1-(2-(N-methyl-N-isobutyrylamino)ethyl)-pyrrolidine-3-carboxylic acid] | 90.6 | 
9 | COc1ccc(C2C(C(=O)O)C(c3ccc4c(c3)OCO4)CN2C/C=C/CC(C)C)cc1 (stereo not drawn) [Example 69D, trans,trans-2-(4-Methoxyphenyl)-4-(1,3-benzodioxol-5-yl)-1-N-(trans-5-methylhex-2-enyl)-pyrrolidine-3-carboxylic acid] | 37.4 | 
10 | CCCCC(=O)CN1CC(c2ccc3c(c2)OCO3)C(C(=O)O)C1c1ccc(OC)cc1 (stereo not drawn) [Example 72C, trans,trans-2-(4-Methoxyphenyl)-4-(1,3-benzodioxol-5-yl)-1-(valerylmethyl)-pyrrolidine-3-carboxylic acid] | 80.7 | 
11 | COc1ccc(C2C(C(=O)O)C(c3ccc4c(c3)OCO4)CN2CC(=O)N(C)Cc2ccc(OC)c(OC)c2)cc1 (stereo not drawn) [Example 73C, trans,trans-2-(4-Methoxyphenyl)-4-(1,3-benzodioxol-5-yl)-1-(N-(3,4-dimethoxybenzyl)-N-methylaminocarbonylmethyl)pyrrolidine-3-carboxylic acid] | 96.3 | 
12 | CCC[C@H](C(=O)N(CCC)CCC)N1C[C@@H](c2ccc3c(c2)OCO3)[C@@H](C(=O)O)[C@@H]1c1ccc(OC)cc1 [Example 75C, (2R,3R,4R)-2-(4-Methoxyphenyl)-4-(1,3-benzodioxol-5-yl)-1-((1R)-1-(N,N-dipropylaminocarbonyl)-1-butyl)pyrrolidine-3-carboxylic acid] |  | 95.3
13 | CCC[C@H](C(=O)N(CCC)CCC)N1C[C@H](c2ccc3c(c2)OCO3)[C@H](C(=O)O)[C@H]1c1ccc(OC)cc1 [Example 76, (2S,3S,4S)-2-(4-Methoxyphenyl)-4-(1,3-benzodioxol-5-yl)-1-((1R)-1-(N,N-dipropylaminocarbonyl)-1-butyl)pyrrolidine-3-carboxylic acid] |  | 93.1
14 | CCCCCC1C(C(=O)O)C(c2ccc3c(c2)OCO3)CN1CC(=O)N(CCCC)CCCC (stereo not drawn) [Example 92C, trans,trans-2-(Pentyl)-4-(1,3-benzodioxol-5-yl)-1-(N,N-di(n-butyl)aminocarbonylmethyl)pyrrolidine-3-carboxylic acid] | 107.4 | 
15 | CCCCCC1C(C(=O)O)C(c2ccc3c(c2)OCO3)CN1CCN(CCC)S(=O)(=O)CCC (stereo not drawn) [Example 93C, trans,trans-2-(Pentyl)-4-(1,3-benzodioxol-5-yl)-1-[2-(N-propyl-N-propylsulfonylamino)ethyl]pyrrolidine-3-carboxylic acid] | 59.2 | 
16 | CCCN(CCN1CC(c2ccc3c(c2)OCO3)C(C(=O)O)C1c1ccc(OC)cc1)S(=O)(=O)c1ccc(C)cc1C (stereo not drawn) [Example 123, trans,trans-1-(2-(N-Propyl-N-(2,4-dimethylbenzenesulfonyl)amino)ethyl)-2-(4-methoxyphenyl)-4-(1,3-benzodioxol-5-yl)pyrrolidine-3-carboxylic acid] | 89.7 | 
17 | CCCN(CCN1CC(c2ccc3c(c2)OCO3)C(C(=O)O)C1c1ccc(OC)cc1)S(=O)(=O)CCCCl (stereo not drawn) [Example 124, trans,trans-1-(2-(N-Propyl-N-(3-chloropropylsulfonyl)amino)ethyl)-2-(4-methoxyphenyl)-4-(1,3-benzodioxol-5-yl)pyrrolidine-3-carboxylic acid] | 91.0 | 
18 | CCCN(CCN1CC(c2ccc3c(c2)OCO3)C(C(=O)O)C1c1ccc(OC)cc1)S(=O)(=O)CCOC (stereo not drawn) [Example 125, trans,trans-1-(2-(N-Propyl-N-(2-methoxyethylsulfonyl)amino)ethyl)-2-(4-methoxyphenyl)-4-(1,3-benzodioxol-5-yl)pyrrolidine-3-carboxylic acid] | 97.2 | 
19 | CCCN(CCN1CC(c2ccc3c(c2)OCO3)C(C(=O)O)C1c1ccc(OC)cc1)S(=O)(=O)CCOCC (stereo not drawn) [Example 126, trans,trans-1-(2-(N-Propyl-N-(2-ethoxyethylsulfonyl)amino)ethyl)-2-(4-methoxyphenyl)-4-(1,3-benzodioxol-5-yl)pyrrolidine-3-carboxylic acid] | 91.7 | 
20 | CCCN(CCN1CC(c2ccc3c(c2)OCO3)C(C(=O)O)C1c1ccc(OC)cc1)S(=O)(=O)c1cccc2c(N(C)C)cccc12 (stereo not drawn) [Example 127, trans,trans-1-(2-(N-Propyl-N-(5-dimethylamino-1-naphthylsulfonyl)amino)ethyl)-2-(4-methoxyphenyl)-4-(1,3-benzodioxol-5-yl)pyrrolidine-3-carboxylic acid] | 91.4 | 
21 | CCCN(CCN1CC(c2ccc3c(c2)OCO3)C(C(=O)O)C1c1ccc(OC)cc1)S(=O)(=O)CC (stereo not drawn) [Example 128, trans,trans-1-(2-(N-Propyl-N-(ethylsulfonyl)amino)ethyl)-2-(4-methoxyphenyl)-4-(1,3-benzodioxol-5-yl)pyrrolidine-3-carboxylic acid] | 95.4 | 
22 | CCCN(CCN1CC(c2ccc3c(c2)OCO3)C(C(=O)O)C1c1ccc(OC)cc1)S(=O)(=O)c1ccc(C)cc1 (stereo not drawn) [Example 129, trans,trans-1-(2-(N-Propyl-N-(4-methylbenzenesulfonyl)amino)ethyl)-2-(4-methoxyphenyl)-4-(1,3-benzodioxol-5-yl)pyrrolidine-3-carboxylic acid] | 100.1 | 
23 | CCCCN(CCCC)C(=O)CN1CC(c2ccc3c(c2)OCO3)C(C(=O)O)C1c1cccnc1 (stereo not drawn) [Example 130, trans,trans-1-(N,N-Di(n-butyl)aminocarbonylmethyl)-2-(3-pyridyl)-4-(1,3-benzodioxol-5-yl)pyrrolidine-3-carboxylic acid] | 91.0 | 
24 | CCCCS(=O)(=O)N(CCC)CCN1CC(c2ccc3c(c2)OCO3)C(C(=O)O)C1c1ccc(OC)cc1 (stereo not drawn) [Example 131, trans,trans-1-(2-(N-Propyl-N-(n-butylsulfonyl)amino)ethyl)-2-(4-methoxyphenyl)-4-(1,3-benzodioxol-5-yl)pyrrolidine-3-carboxylic acid] | 89.5 | 
